# Source: patent US10537534B1, “Compositions and methods for treating skin conditions using visible light and resorcinols” (Johnson & Johnson Consumer Inc., priority 2019, dated 2020)
# How the values were obtained:
# C. acnes ATCC 6919 [1] = test: Minimum inhibitory concentration (MIC) of 4-hexyl resorcinol against C. acnes growth, serial dilution in 96-well plate, visible turbidity; format: cell-based, Cutibacterium acnes; design: key: A “+” indicates growth; a “−” indicates no growth; details: anaerobic, 3 days, 35° C.
# Protocol: (§1) A standard C. acnes ATCC 6919 culture is grown in Reinforced Clostridial Media (RCM) (Remel, Lenexa, Kans.). A suspension of C. acnes is adjusted to OD600=1.0 using a Spectromax M5 spectrophotometer (Molecular Devices, San Jose, Calif.) to yield a concentration of 10^8 cfu/ml. A 1:100 dilution of the standardized suspension is created to yield an inoculum concentration of 10^6 cfu/ml. Therefore, 100μl of inoculum into 100 μl of test sample yields 5×10^5 cfu/ml C. acnes within a 96-well experiment plate.
# The minimum inhibitory concentration (MIC) of 4-hexyl resorcinol was determined to investigate its ability to inhibit the growth of C. acnes. All media and diluents were sterile. Aseptic techniques were used during study execution.
# A C. acnes inoculum was prepared as set forth above.
# A 0.1% (w/w) stock of 4-hexylresorcinol (Alfa Aesar, Tewksbury, Mass.) was made in RCM. Serial 1:2 dilutions were made in RCM across successive wells of a 96-well plate (sterile, u-bottom, untreated culture plate from Greiner Bio-one, Monroe, N.C.) to yield 10 test concentrations. After inoculation with equal volumes of C. acnes suspension, the test concentrations ranged from 0.05% through […] (v/v). Sterile RCM and 5×10^5 cfu/ml C. acnes in RCM were set up as a negative growth control and a positive growth control, respectively. Sterile 0.1% (w/w) 4-hexylresorcinol in RCM was set up as a turbidity control.
# The 96-well plate was incubated anaerobically for 3 days at 35° C. The presence of visible turbidity within a challenged well was indicative of growth, while a clear well indicated no growth. The lowest concentration that inhibited C. acnes growth was determined to be the MIC. Negative growth control (not turbid) and positive growth control (turbid) results were as expected.
# C. acnes ATCC 6919 [2] = test: In vitro reduction of C. acnes by 4-hexylresorcinol with or without 440 nm blue light, colony count; format: cell-based, Cutibacterium acnes; details: for Ave. Log Reduction ± S.D., arithmetic sum (expected additive): sum of light only and 0.002% 4-hexylresorcinol only
# Protocol: as §1
# The culture is incubated in anaerobic chamber (<10 ppm O^2, 2.5-5% H^2, balance N^2 at 35±2° C.), in the dark, on an orbital shaker at 80 RPM. For test treatments including light, the prepared C. acnes culture is exposed for two, 60-minute light cycles with a 60-minute hold time between. Each light cycle is with blue light at wavelength 440 nm and 22±2 mW/cm^2 intensity. After treatments, the sample is incubated overnight (16±2 hours) in an anaerobic chamber. The sample is then recovered onto agar and incubated 5-7 days until clear colonies are visible. After growth, the remaining viable C. acnes colonies are counted; converted to cfu/ml and the log 10 reduction in number of cells is calculated (log 10 reduction=no light control sample−test sample).
# A C. acnes inoculum was prepared as set forth above and in the same manner as Example 1. The solution was stored at 4° C. until time of use. The stock solution was added to RCM to produce a final concentration of 0.01% (v/v) and inoculated with 0.1 mL of the C. acnes suspension to yield 10^6 cfu/ml. The prepared culture in RCM+ALA was incubated by shaking at 80 rpm, in the dark (foil covered), and in an anaerobic chamber at 35±2° C. for 24 hours.
# A 0.02% (w/v) of n-4-hexylresorcinol (Alfa Aesar, Tewksbury, Mass.) was prepared in RCM. The sample stock solution was mixed as 1:10 (v/v) with 24-hour C. acnes culture in RCM+ALA. Organism control culture was diluted 1:10 (v/v) with RCM for equivalent organism concentration.
# The in vitro evaluation was conducted as follows. The prepared C. acnes culture (grown with ALA) was mixed with the test sample as described above, added to 6-well plates and then exposed to two 60-minute, 440 nm blue light (22 mW) exposures, separated by one 60-minute rest period in the dark. Two samples were tested: 4-hexylresorcinol at 0.002% (v/v) and 24-hour C. acnes culture in RCM+ALA alone. A duplicate, 6-well plate was kept un-exposed to light as a control. All plates were incubated anaerobically, overnight, in the dark (foil covered), and in an anaerobic chamber at 35±2° C.
# After 24-hour incubation, samples were serial diluted and plated onto Reinforced Clostridial Agar (Remel, Lenexa, Kans.). Agar plates were incubated anaerobically at 35±2° C. for 5-7 days until bacterial colonies were well-established. Then, colonies were counted and colony forming units (CFU) per ml were calculated. Statistically significant differences are defined by unshared letter groupings.
compound,measurement,setting,value
CCCCCCc1ccc(O)cc1O [4-hexylresorcinol],Growth,C. acnes ATCC 6919 [1]; concentration 1.25E^−2 % v/v,−
same,Growth,C. acnes ATCC 6919 [1]; concentration 1.56E^−3 % v/v,−
same,Growth,C. acnes ATCC 6919 [1]; concentration 1.95E^−4 % v/v,+
same,Growth,C. acnes ATCC 6919 [1]; concentration 2.50E^−2 % v/v,−
same,Growth,C. acnes ATCC 6919 [1]; concentration 3.13E^−3 % v/v,−
same,Growth,C. acnes ATCC 6919 [1]; concentration 3.91E^−4 % v/v,+
same,Growth,C. acnes ATCC 6919 [1]; concentration 5.0E^−2 % v/v,−
same,Growth,C. acnes ATCC 6919 [1]; concentration 6.25E^−3 % v/v,−
same,Growth,C. acnes ATCC 6919 [1]; concentration 7.81E^−4 % v/v,+
same,Growth,C. acnes ATCC 6919 [1]; concentration 9.77E^−5 % v/v,+
same,Ave. Log Reduction ± S.D.,"C. acnes ATCC 6919 [2]; 0.002% (v/v) 4-hexylresorcinol plus 440 nm blue light (22 mW), two 60-minute exposures, simultaneous",4.84 log
same,Ave. Log Reduction ± S.D.,"C. acnes ATCC 6919 [2]; 0.002% (v/v) 4-hexylresorcinol plus 440 nm blue light (22 mW), two 60-minute exposures, simultaneous, listed as HR",4.84 ± 0.40 log
same,Ave. Log Reduction ± S.D.,"C. acnes ATCC 6919 [2]; 0.002% (v/v) 4-hexylresorcinol treatment only, no light",1.00 log
same,Ave. Log Reduction ± S.D.,"C. acnes ATCC 6919 [2]; 0.002% (v/v) 4-hexylresorcinol treatment only, no light, listed as HR",1.00 ± 0.55 log
same,Benefit from the synergistic combination over expected additive reduction,C. acnes ATCC 6919 [2]; light plus 0.002% 4-hexylresorcinol versus arithmetic sum,100 fold
same,"Ave. Log Reduction ± S.D., arithmetic sum (expected additive)",C. acnes ATCC 6919 [2],2.83 log
same,"Ave. Log Reduction ± S.D., arithmetic sum (expected additive)",C. acnes ATCC 6919 [2]; listed as HR,2.83 ± 1.08 log
